{
  "source": "patent US20040213826A1",
  "about": "“Medical devices and methods for inhibiting proliferation of smooth muscle cells” (priority 2003, published 2004)",
  "key": {"[1]": {"system": "rat aortic smooth muscle cells (RASM cells)", "experiment": "RASM cell proliferation assay (Promega CellTiter 96 AQueous One Solution)", "type": "cell-based", "conditions": "for inhibition of RASM cell proliferation (in words) / IC50, inhibition of SMC proliferation: RASM cells, 48 h exposure; for IC50, inhibition of SMC proliferation: light absorption", "description": "(§1) Low-passage rat aortic smooth muscle cells (RASM cells) from primary isolates and human aortic smooth muscle cells (HASM cells) were obtained and grown according to the suppliers' instructions. RASM cells were cultured in a medium comprising DMEM+10% FBS+100 U/ml penicillin and […], which was changed every 48 h. Micro-cultures of 5000 cells of each of the RASM and HASM were established in quadruplicate, placedin flat-bottom 96-well micro-titer plates, and exposed to various concentrations of the trichostatin-A, oxamflatin, and rapamycin. Trichostatin-A and oxamflatin were dissolved in dimethyl sulfoxide (DMSO) at various concentrations, and stored at −20° C. prior to use; rapamycin was dissolved in methanol (100 nM). After 48 h following initial exposure, the cultures were pulsed with […] of a cell-proliferation assay solution (Promega CellTiter 96 AQueous One Solution, Catalog G3580), and incubated for 1 h. The cultures' light absorbance was then measured on a BioRad Benchmark micro-plate reader, which was set to the range Ab 490 nm-Ab 655 nm. Light absorbed by the blank was accounted for in the tests. All experiments were repeated at least twice. Cell viability was determined using trypan blue staining, after incubating RASM cells with 100 ng/ml of rapamycin and trichostatin-A for 48 h.\nReferring to FIG. 1, micro-cultures consisting of RASM cells were plated into a 96-well dish, and exposed as follows: a number of the micro-cultures were sham exposed, a number were exposed to rapamycin (5, 10, and 50 ng/ml, respectively), and a number were exposed to trichostatin-A ([…], respectively). The RASM cells were exposed for 48 h, prior to assessing cell proliferation.\nReferring to FIG. 2, micro-cultures of RASM cells were plated into a 96-well dish, and exposed as follows: a number of the micro-cultures were sham exposed, and a number were exposed to oxamflatin (5, 10, 50, 100, 200 and 500 ng/ml, respectively)., The RASM cells were exposed for 48 h before assessing cell proliferation."}, "[2]": {"system": "vascular-endothelial-growth-factor-stimulated human umbilical endothelial cells", "conditions": "cited from earlier work"}, "[3]": {"system": "IL-2 expression in Jurkat cells", "conditions": "read-out: IC50, inhibition of IL-2 expression; cited from earlier work"}, "[4]": {"conditions": "cited from earlier work"}, "[5]": {"system": "porcine coronary arteries", "conditions": "1 mM; cited from earlier work"}, "embryoid bodies": {"system": "embryoid bodies", "conditions": "cited from earlier work"}, "[6]": {"system": "primary cultured SMCs from rat thoracic aorta", "conditions": "1 μg/ml; cited from earlier work"}, "RASM cells": {"system": "RASM cells", "experiment": "Cell viability by trypan blue staining", "type": "cell-based, rat", "conditions": "100 ng/ml, 48 h", "description": "as §1"}},
  "note": "Like-named read-outs stand apart in the source and are kept apart here.",
  "data": [
    {"molecule": "oxamflatin", "values": [
      {"measurement": "inhibition of RASM cell proliferation (in words)", "setting": "[1]", "result": "inhibited RASM cell proliferation"},
      {"measurement": "IC50, inhibition of SMC proliferation", "setting": "[1]", "result": "~0.075", "unit": "µg/mL"}
    ]},
    {"molecule": "CC(/C=C/C(=O)NO)=C\\[C@@H](C)C(=O)c1ccc(N(C)C)cc1", "note": "[trichostatin-A]", "values": [
      {"measurement": "invasion of type I collagen gel and formation of capillary like structures", "setting": "[2]; 400 nM", "result": "prevent"},
      {"measurement": "IC50", "setting": "[3]", "result": 73, "unit": "nM"},
      {"measurement": "inhibition of RASM cell proliferation (in words)", "setting": "[1]", "result": "significant inhibition of SMC proliferation"},
      {"measurement": "IC50, inhibition of SMC proliferation", "setting": "[1]", "result": "~0.02", "unit": "µg/mL"},
      {"measurement": "inhibition of RASM cell proliferation compared with rapamycin", "setting": "[1]; equal concentrations of 50 ng/ml, 48 h", "result": "greater than that exhibited by rapamycin"},
      {"measurement": "solubility", "setting": "[4]", "result": "soluble in DMSO and ethanol"},
      {"measurement": "NO-dependent relaxation of porcine coronary arteries", "setting": "[5]", "result": "attenuated"},
      {"measurement": "angiogenesis in embryoid bodies", "setting": "embryoid bodies; 10 nM", "result": "inhibit angiogenesis"},
      {"measurement": "PDGF-induced competence of primary cultured SMCs", "setting": "[6]", "result": "inhibited"},
      {"measurement": "cell viability, trypan blue exclusion, versus control cells", "setting": "RASM cells", "result": "no significant difference"}
    ]},
    {"molecule": "O=C(CCCCCCC(=O)Nc1ccccc1)NO", "note": "[SAHA, suberoylanilide hydroxamic acid]", "values": [
      {"measurement": "invasion of type I collagen gel and formation of capillary like structures", "setting": "[2]; concentration not given", "result": "prevent"},
      {"measurement": "angiogenesis in embryoid bodies", "setting": "embryoid bodies; 400 nM", "result": "inhibit angiogenesis"}
    ]}
  ]
}
